# According to PMC6036575, “Reincarnation of Bacteriocins From the Lactobacillus Pangenomic Graveyard” (Frontiers in Microbiology, 2018):
# Entries after “also recorded” stand apart in the source; their conditions may differ.
# What was measured:
# L. innocua DPC3572 = assay: Bacteriocin activity (BU/ml), dilution series in well diffusion assay; format: cell-based, Listeria innocua; conditions: for Bacteriocin Activity (BU/ml) vs. L. innocua DPC3572: inverse of the highest dilution of bacterial supernatant showing activity in a well diffusion assay
# Method: (§1) Bacteriocin activity was determined using well diffusion assays (WDAs). For Tuner^TM (DE3) E. coli transformants both the cell supernatant and the cell lysates were analyzed for antimicrobial activity, whilst only the supernatants were analyzed for L. paracasei NFBC338 cells. Supernatant was isolated by centrifugation of the liquid cultures at 4000 RCF for 15 min, these supernatants were then filtered using 0.20 μm membrane filters. For cell lysates, cell pellets were resuspended in 5 ml of phosphate-buffered saline (PBS), cells were lysed by sonication using a MSE Soniprep 150 (MSE, London, UK). Lysates were subsequently centrifuged at 4000 RCF for 15 min and the resulting supernatants were filtered using 0.20 μm membrane filters. For the indicator plates, 50 μl of an overnight culture of the indicator strain was added to the appropriate media containing 1% agar. Plates were cooled and 7 mm wells were bored in the agar. 50 μl of the cell supernatants/lysates being tested were added to each well and plates were refrigerated for 2 h prior to incubation under the appropriate conditions. WDAs were carried out in triplicate for each bacteriocin.
# (§2) E. coli Tuner^TM (DE3) cells transformed with the newly constructed plasmids were grown in LB supplemented with glucose to maintain a low-copy number and bacteriocin expression was induced by co-incubation of the clones with 50 μM IPTG for 3 h. WDAs were used to identify bacteriocin activity from the bacterial supernatants and cell lysates. Bacteriocins were exclusively found in the bacterial supernatant. Antimicrobial activity was lower in cases where the native leader of the bacteriocin sequence was used; with only four of the nine strains displaying zones of inhibition against a sensitive indicator (pediocin 20336a has an identical leader to pediocin PA-1). For expression in L. paracasei NFBC338, cells were transformed by electroporation with the bacteriocin-containing pNZ44 vectors. Positive transformants were grown overnight and the neutralized cell free supernatant was used to identify bacteriocin production in WDAs.
# [1] = tested on: Li. monocytogenes WSL 1416; assay: Well diffusion assay, spectrum of bacteriocin activity; format: cell-based; conditions: 50 μl filtered supernatant of E. coli Tuner (DE3) transformants encoding the pediocin PA-1 leader, 7 mm wells, triplicate
# Method: as §1, §2
# (§3) The spectrum of activity was determined using WDAs against 32 indicator strains for bacteriocins produced by the E. coli transformants encoding the pediocin leader (Table 2). Despite being of the same class of bacteriocins, these novel antimicrobials display a varying spectrum of activity. […] Many of these bacteriocins, however, can inhibit a wide range of Gram positive bacteria including potential pathogens such as Enterococcus faecalis. As with most class IIa bacteriocins, these also display potent anti-listerial activity.
# L. mali DSM 20444 = assay: as above; format: cell-based; conditions: 50 μl filtered supernatant of E. coli Tuner (DE3) transformants encoding the pediocin PA-1 leader, 7 mm wells, triplicate
# Method: as §1, §2, §3
# L. apodemi DSM 16654 = assay: as above; format: cell-based; conditions: 50 μl filtered supernatant of E. coli Tuner (DE3) transformants encoding the pediocin PA-1 leader, 7 mm wells, triplicate
# Method: as §1, §2, §3
# [2] = tested on: Listeria innocua DPC 3572; assay: as above; format: cell-based; conditions: 50 μl filtered supernatant of E. coli Tuner (DE3) transformants encoding the pediocin PA-1 leader, 7 mm wells, triplicate
# Method: as §1, §2, §3
# [3] = tested on: Li. monocytogenes DPC 6894; assay: as above; format: cell-based; conditions: 50 μl filtered supernatant of E. coli Tuner (DE3) transformants encoding the pediocin PA-1 leader, 7 mm wells, triplicate
# Method: as §1, §2, §3
# [4] = tested on: E. saccharolyticus DPC 4902; assay: as above; format: cell-based; conditions: 50 μl filtered supernatant of E. coli Tuner (DE3) transformants encoding the pediocin PA-1 leader, 7 mm wells, triplicate
# Method: as §1, §2, §3
# [5] = tested on: Enterococcus faecalis LMG 7397; assay: as above; format: cell-based; conditions: 50 μl filtered supernatant of E. coli Tuner (DE3) transformants encoding the pediocin PA-1 leader, 7 mm wells, 1% agar, triplicate
# Method: as §1, §2, §3
# E.mundtii LMG 10748 = assay: as above; format: cell-based; conditions: 50 μl filtered supernatant of E. coli Tuner (DE3) transformants encoding the pediocin PA-1 leader, 7 mm wells, triplicate
# Method: as §1, §2, §3
# [6] = tested on: P. ethanolidurans DSM 22301; assay: as above; format: cell-based; conditions: 50 μl filtered supernatant of E. coli Tuner (DE3) transformants encoding the pediocin PA-1 leader, 7 mm wells, triplicate
# Method: as §1, §2, §3
# 32 indicator strains = assay: Well diffusion assays against the panel of 32 indicator strains; format: cell-based; conditions: for Total no. of strains inhibited: of 32 indicator strains, supernatant of E. coli transformants encoding the pediocin leader; for antimicrobial activity / spectrum, in words: crude supernatant from the E. coli heterologous host, pediocin PA-1 leader
# Method: as §1, §2, §3
# L. nodensis DSM 16982 = assay: Well diffusion assay, spectrum of bacteriocin activity; format: cell-based; conditions: 50 μl filtered supernatant of E. coli Tuner (DE3) transformants encoding the pediocin PA-1 leader, 7 mm wells, triplicate
# Method: as §1, §2, §3
# L. crustorum JCM 15951 = assay: as above; format: cell-based; conditions: 50 μl filtered supernatant of E. coli Tuner (DE3) transformants encoding the pediocin PA-1 leader, 7 mm wells, triplicate
# Method: as §1, §2, §3
# [7] = tested on: Li. monocytogenes DPC 6893; assay: as above; format: cell-based; conditions: 50 μl filtered supernatant of E. coli Tuner (DE3) transformants encoding the pediocin PA-1 leader, 7 mm wells, triplicate
# Method: as §1, §2, §3
# P. clausenii DSM 14800 = assay: as above; format: cell-based; conditions: 50 μl filtered supernatant of E. coli Tuner (DE3) transformants encoding the pediocin PA-1 leader, 7 mm wells, triplicate
# Method: as §1, §2, §3
# L. plantarum DSM 13273 = assay: as above; format: cell-based; conditions: 50 μl filtered supernatant of E. coli Tuner (DE3) transformants encoding the pediocin PA-1 leader, 7 mm wells, triplicate
# Method: as §1, §2, §3
# L. amylophilus DSM 20509 = assay: as above; format: cell-based; conditions: 50 μl filtered supernatant of E. coli Tuner (DE3) transformants encoding the pediocin PA-1 leader, 7 mm wells, triplicate
# Method: as §1, §2, §3
# [8] = tested on: Pediococcus stilesii DSM 18001; assay: as above; format: cell-based; conditions: 50 μl filtered supernatant of E. coli Tuner (DE3) transformants encoding the pediocin PA-1 leader, 7 mm wells, triplicate
# Method: as §1, §2, §3
# [9] = produced by E. coli Tuner (DE3)
# [10] = produced by L. paracasei NFBC338, neutralized cell free supernatant
Substance,Bacteriocin Activity (BU/ml) vs. L. innocua DPC3572 (L. innocua DPC3572; [9]),radius of the zone of inhibition [1],radius of the zone of inhibition (L. mali DSM 20444),radius of the zone of inhibition (L. apodemi DSM 16654),radius of the zone of inhibition [2],radius of the zone of inhibition [3],radius of the zone of inhibition [4],radius of the zone of inhibition [5],radius of the zone of inhibition (E.mundtii LMG 10748),radius of the zone of inhibition [6],Total no. of strains inhibited (32 indicator strains),Bacteriocin Activity (BU/ml) vs. L. innocua DPC3572 (L. innocua DPC3572; [10]),radius of the zone of inhibition [7],also measured
"–KYYGNGVSCG-KHTCKVNWGQAWNESVNRWGNSWVNGLTGLRQH— (disulfide) [Futcin (Fut), novel pediocin-like class IIa bacteriocin encoded by L. futsaii JCM 17355, heterologously expressed]",+ (+ = 0 – 160 BU/ml),1 ± 0 millimeters,2.17 ± 0.85 millimeters,0.33 ± 0.47 millimeters,2.00 ± 0 millimeters,0.83 ± 0.24 millimeters,2 ± 0 millimeters,1.67 ± 0.47 millimeters,1.83 ± 0.24 millimeters,3 ± 0 millimeters,–,–,–,Total no. of strains inhibited (32 indicator strains; listed as Fut): 9; Total no. of strains inhibited (32 indicator strains; listed as futcin): nine
"–KNYGNGVYCTKKHGYKVDWGQAWSIIGNNSAANSTTRGAAGWKSK—- [Aquaticin (Aqu), novel pediocin-like class IIa bacteriocin encoded by L. aquaticus DSM 21051; peptide not identified by MALDI-TOF]",–,–,–,–,–,–,–,–,–,–,0,–,–,"antimicrobial activity / spectrum, in words (32 indicator strains; listed as Aquaticin): failed to display antimicrobial activity; antimicrobial activity / spectrum, in words (32 indicator strains; listed as aquaticin): activity was not seen"
"SRYYGNGITCG-KHKCTVNWGQAWTCGVNRLANFGH–G————–NC— (bicyclic or more) [Agilicin (Agl), novel pediocin-like class IIa bacteriocin encoded by L. agilis DSM 20509, heterologously expressed]",++ (++ = 320 – 2560 BU/ml),2 ± 0.82 millimeters,4.50 ± 0.41 millimeters,2.67 ± 0.47 millimeters,5 ± 0 millimeters,4 ± 0 millimeters,3.33 ± 0.47 millimeters,2.17 ± 0.24 millimeters,3 ± 0 millimeters,3.33 ± 0.47 millimeters,14,++ (++ = 320 – 2560 BU/ml),2 ± 0 millimeters,radius of the zone of inhibition (L. nodensis DSM 16982): 3.50 ± 0.71 millimeters; radius of the zone of inhibition (L. crustorum JCM 15951): 0.33 ± 0.47 millimeters; radius of the zone of inhibition (P. clausenii DSM 14800): 0.67 ± 0.47 millimeters; radius of the zone of inhibition (L. plantarum DSM 13273): 0.33 ± 0.47 millimeters
"—-KYYGNGLHIPKHGKPYINWGQAIQSIGKISYHGWVNGITSGAAGVGRH [Acidicin (Acd), novel pediocin-like class IIa bacteriocin encoded by L. acidipiscis DSM 15836, heterologously expressed]",–,–,1.50 ± 0.41 millimeters,–,–,–,–,–,–,–,1,–,–,"antimicrobial activity / spectrum, in words (32 indicator strains): displayed activity exclusively against L. mali"
"–KYYGNGVSCS-KHSCSVDWGKALTCTINNGAMAWTTGGHQGNHKC—- (bicyclic or more) [Rennicin A (RenA), novel pediocin-like class IIa bacteriocin encoded by L. rennini DSM 20253, heterologously expressed]",+ (+ = 0 – 160 BU/ml),2.67 ± 0.47 millimeters,1 ± 0 millimeters,0.67 ± 0.47 millimeters,6.33 ± 0.94 millimeters,2 ± 1.41 millimeters,2.33 ± 0.47 millimeters,3 ± 0 millimeters,3.33 ± 0.47 millimeters,1.50 ± 0.41 millimeters,10,+ (+ = 0 – 160 BU/ml),2 ± 0 millimeters,–
"–KYYGNGVSCG-KHSCSVDWGKATTCTINNSAMAWATSGHQGNHKC—- (bicyclic or more) [Rennicin B (RenB), novel pediocin-like class IIa bacteriocin encoded by L. rennini DSM 20253, heterologously expressed]",–,–,–,–,–,–,–,–,–,–,0,+ (+ = 0 – 160 BU/ml),–,"level of activity when expressed in L. paracasei NFBC338, in words (L. innocua DPC3572; expressed in L. paracasei NFBC338): equal levels of activity compared to rennicin A; antimicrobial activity / spectrum, in words (32 indicator strains): failed to display antimicrobial activity; also recorded: did not display activity"
"–KYYGNGVHCG-KKTCYVDWGQATASIGKIIVNGWTQHGPWAHR———- (disulfide) [Penocin A (PenA), previously characterized class IIa bacteriocin, here encoded by P. pentosaceus DSM 20336, heterologously expressed]",++ (++ = 320 – 2560 BU/ml),0.67 ± 0.47 millimeters,1.50 ± 1.08 millimeters,–,2.50 ± 0.41 millimeters,0.67 ± 0.47 millimeters,1.33 ± 0.94 millimeters,0.67 ± 0.47 millimeters,1.33 ± 0.94 millimeters,2 ± 1.41 millimeters,12,+ (+ = 0 – 160 BU/ml),0.67 ± 0.47 millimeters,radius of the zone of inhibition (L. amylophilus DSM 20509): 0.67 ± 0.47 millimeters; radius of the zone of inhibition [8]: 0.67 ± 0.47 millimeters; radius of the zone of inhibition (P. clausenii DSM 14800): 1 ± 0.82 millimeters
